Patent US7973062B2, “Androgen receptor-ablative agents” (The Ohio State University Research Foundation, priority 2008, dated 2011)
Read-outs that look alike come from different tables or passages of the source.

Legend:
Format in all cases: cell-based
LNCaP and PC-3 cells = assay: Cell counting assay for cell proliferation, LNCaP versus PC-3; conditions: Coulter counter (FIG. 5B)
Description: (§1) Cell Counting and Cell Viability Assay. LNCaP or PC-3 cells were placed in six-well plates (2.5×10^5 cells/well) in 10% FBS-supplemented RPMI 1640 for 24 h, and treated with various concentrations of compound 12 for additional 24, 48 and 72 h. Cells were then trypsinized and counted by using a Coulter counter (Model Z1 D/T, Beckman Coulter, Fullerton, Calif.). Cell viability was assessed by using the 3-(4,5-dimethylthiazol-2-yl)-2,5-diphenyl-2H-tetrazolium bromide (MTT) assay in six replicates in 96-well plates. LNCaP or PC-3 cells were seeded at 6000 cells per well in 10% FBS-supplemented RPMI 1640 for 24 h, followed by treatments with various compounds in 5% FBS-supplemented RPMI 1640 at the indicated concentrations. Controls received DMSO at a concentration equal to that in drug-treated cells. After the end of incubation, MTT (0.5 mg/ml) in 10% FBS-supplemented RPMI 1640 was added to each well, and cells were incubated at 37° C. for 2 hours. Medium was removed and the reduced MTT dye was solubilized in DMSO (200 μl/well). Absorbance was determined at 570 nm by a 96-well plate reader.

[1] = test system: LNCaP androgen-responsive prostate cancer cells; assay: MTT cell viability assay, LNCaP cells; conditions: for IC50: Homo sapiens, 5% FBS, read-out: IC50 for suppressing cell viability
Description: as §1

[2] = test system: PARP cleavage, caspase 3 and caspase 7 activation; assay: Western blot of apoptosis-related biomarkers in LNCaP cells; conditions: 72 h
androgen receptor (AR) = assay: Immunocytochemical analysis of AR in LNCaP cells; conditions: 5 μM, 48 h
Description: Immunocytochemical Analysis. Cells were seeded onto coverslips in six-well plates (2.5×10^5 cells/well) for 24 h followed by exposure to 5 μM compound 12 for an additional 48 h. After extensive washing with PBS, cells were fixed and permeabilized with PBS containing 0.1% Triton X-100 for 1 h, and then incubated with anti-AR (1:100 dilution) in PBS containing 0.1% Triton X-100, 0.2% bovine serum albumin, 0.5 mM PMSF, and 1 mM DTT at room temperature for 12 h followed by Alexa Fluor 488-conjugated goat anti-mouse IgG (1:100; Molecular Probes) for 2 h. Nuclear counterstaining was performed by mounting with 4,6-diamidino-2-phenylindole (DAPI)-containing medium. Images of immunocytochemically labeled samples were observed using a Nikon microscope (Eclipse TE300).

AR promoter = assay: AR promoter-luciferase reporter assay in transiently transfected LNCaP cells; conditions: compounds at 10 μM, 48 h, ciglitazone and Δ2CG at 20 μM
Description: Transfection and Luciferase assay. The 3.6-kilobase AR promoter-linked reporter plasmid p-3600ARCAT was kindly provided by Dr. Chawnshang Chang (University of Rochester Medical Center, Rochester, N.Y.). The AR promoter gene (−3600 to +550) encompassing the transcription start site was isolated by using PCR to generate hAR-luc with suitable primers. The fragment was subcloned into the pGL3 luciferase reporter vector (Promega, Madison, Wis.) at KpnI and BglII in the multiple cloning site. The PPRE-x3-TK-Luc reporter vector contains three copies of the PPAR-response element (PPRE) upstream of the thymidine kinase promoter-luciferase fusion gene and was kindly provided by Dr. Bruce Spiegelman (Harvard University, Cambridge, Mass.). The pCMVSp1 plasmid was purchased from Origene Technologies, Inc. (Rockville, Md.). LNCaP or PC3 cells were transfected with 5 μg of individual plasmids in an Amaxa Nucleofector using a cell line-specific nucleofector kit according to the manufacturer's protocol (Amaxa Biosystems, Cologne, Germany), and then seeded in 6-well plates at 5×10^5 cells per well for 48 h. The transfection efficiency was determined to be 70-80% by transfecting cells with 2 μg of pmaxGFP plasmid, followed by fluorescence microscopy to measure GFP expression. For each transfection, herpes simplex virus thymidine kinase promoter-driven Renilla reniformis luciferase was used as an internal control for normalization.
For the reporter gene assay, after transfection, cells were cultured in 24-well plates in 10% FBS-supplemented RPMI 1640 medium for 48 h, subject to different treatments for the indicated times, collected, and lysed with passive lysis buffer (Promega). Fifty-μl aliquots of the lysates were added to 96-well plates, and luciferase activity was monitored after adding 100 μl of luciferase substrate (Promega) each well by using a MicroLumatPlus LB96V luminometer (Berthold Technologies, Oak Ridge, Tenn.) with the WinGlow software package. All transfection experiments were carried out in six replicate.

[3] = test system: PC-3 androgen-nonresponsive prostate cancer cells; assay: MTT cell viability assay, PC-3 cells; conditions: Homo sapiens, 5% FBS, read-out: IC50 for suppressing cell viability
Description: as §1

With CC1(CN2C(=O)S/C(=C\c3ccc(O)c(C(F)(F)F)c3)C2=O)CCCCC1 [Compound 12, 5-(4-Hydroxy-3-trifluoromethyl-benzylidene)-3-(1-methyl-cyclohexylmethyl)-thiazolidine-2,4-dione] as the compound, how does the “potency in inhibiting proliferation of LNCaP cells compared to PC-3 cells” value (LNCaP and PC-3 cells) read?
The value was “at least twofold higher potency”.

And the “inhibition of LNCaP cell viability (in words)” value ([1]; 48 h)?
Its value is “optimal agents”.

And the IC50 ([1]; 48 h)?
The IC50 was 8 µM.

What about the IC50 ([1]; 72 h) of the same compound?
Its IC50 is 3 µM.

And the “apoptosis-related biomarkers: PARP cleavage, proteolytic activation of caspase 3 and caspase 7” value [2]?
The value was “dose-dependent effects”.

And the “AR levels in the nucleus” value (androgen receptor (AR))?
The value was “substantial decrease in AR levels in the nucleus”.

What about the “suppression of AR promoter-luciferase activity / AR transcription (in words)” value (AR promoter) of the same compound?
Its value is “optimal agents”.

And the IC50 ([3]; 48 h)?
The IC50 was 15 µM.

And the IC50 ([3]; 72 h)?
Its IC50 is 12 µM.
